Test system: hypoechoic-echolucent carotid and femoral atherosclerotic plaques
Experiment: Grey Scale Median (GSM) ultrasound measurement of echolucent carotid and femoral atherosclerotic plaques, prospective 6-month trial
Type: in vivo, human
Conditions: once daily for 6 months, 100 mg/day of each component; responders/patients in group; ** = significant vs initial value and control
Experimental: Variation in echogenicity of echolucent carotid and femoral atherosclerotic plaques with combined treatment (Pycnogenol 100 mg+TTFCA 100 mg, with or without Aspirin 100 mg). A prospective, pilot 6-month trial. (TTFCA=total triterpenic fraction of Centella asiatica) This study has evaluated whether a combination of Pycnogenol® and TTFCA, with or without Aspirin, was effective in reducing plaque progression and cardiovascular risk of events by decreasing platelet aggregation, local arterial inflammation and the intima-media scarring process due to inflammation at the level of carotid and femoral arteries bifurcations. This prospective placebo-controlled trial had the purpose of evaluating the effects of Pycnogenol® and TTFCA, with or without Aspirin, selectivity on hypoechoic-echolucent plaques. The sonographic examination of carotid plaques was made with high-resolution ultrasound. Capturing plaques images, digital image processing, and normalization were standardized. The interobserver, […], gain-level variability were also standardized using as reference blood (black) for the most echolucent parts of the plaque and the adventitia (white) as the most echogenic part. The technique for plaque characterization and GSM (Grey Scale Median) measurements had been previously described in details. […]

SMILES: CC(=O)Oc1ccccc1C(=O)O [Aspirin, acetylsalicylic acid]
- At 6 months: number of patients with an increase of plaques Grey Scale Median of at least 5 points: 2/18
